Laboratory results published in patent US20180140612A1, “TOPICAL OPHTHALMIC FORMULATIONS FOR THE TREATMENT AND PREVENTION OF MIGRAINE HEADACHE” (Ora, Inc., priority 2013, published 2018).
Counter-ions that a name gives are not always drawn.

How the values were obtained:
[1] = migraineurs versus control subjects; cited from earlier work
[2] = instillation of ophthalmic drops in the eye of subjects with migraine; assay type: in vivo, human; conditions: two subjects with occasional migraine
Procedure: Data from two subjects with occasional migraine has shown that one drop of ketotifen 0.025% in the eye was successful in providing relief within 2 hours post treatment
Data from two subjects with occasional migraine has shown that one drop of ketotifen 0.05% in the eye was successful in providing relief within 2 hours post treatment

[3] = first month of treatment; prescription-event data; cited from earlier work
[4] = topical 0.5% ophthalmic solution, twice daily dosing for 8 days, cited from earlier work
[5] = cited from earlier work

Structure (SMILES): NCCc1c[nH]cn1 [histamine]
- induction of migraine headache [1]: induced migraine headache more often in migraineurs than in control subjects

Structure (SMILES): CN1CCC(=C2c3ccccc3CC(=O)c3sccc32)CC1 [ketotifen]
- time to relief post treatment ([2]; one drop of ketotifen 0.025% in the eye): ≤ 2 h
- time to relief post treatment ([2]; one drop of ketotifen 0.05% in the eye): ≤ 2 h

Structure (SMILES): O=C(O)COCCN1CCN([C@H](c2ccccc2)c2ccc(Cl)cc2)CC1 [levocetirizine]
- association of headache/migraines with treatment [3]: positively associated

Structure (SMILES): CC(C)(C)NC[C@H](O)COc1nsnc1N1CCOCC1 [timolol maleate]
- time of peak plasma concentration following first dose [4]: ≤ 4 h
- peak plasma concentration ([4]; following first dose): 0.5 ng/mL
- further attacks of migraine ([5]; case report, person with history of common migraine, topical timolol maleate 0.5% for bilateral ocular hypertension): did not experience any further attacks of migraine

Structure (SMILES): CC(C)NCC(O)COc1ccc(CCOCC2CC2)cc1 (centres unmarked) [betaxolol]
- migraine related complaints ([5]; case control study, group of subjects receiving the topical beta-blocker): showed improvement in their migraine related complaints
